Legend:
[1] = system: patients with PD and constipation; experiment: Phase 2 trial Stage 2: adverse events; settings: for Common adverse events by dose: Dizziness: lightheadedness included
Method: In Stage 2, 34 patients were evaluated. […] This dose was then maintained (“fixed dose”) for an additional 3-5 days. After the “fixed dose”, these patients were randomly assigned to either continued treatment at that dose or to a matching placebo, for an additional 4-6 days prior to a 2-week wash-out.
A second cohort of 19 patients received squalamine (ENT-01) escalating from 100 mg/day to a maximum of 250 mg/day without subsequent randomization to squalamine (ENT-01) or placebo. Criteria for dose selection and efficacy were identical to those used in the previous cohort.
Adverse events were coded using the current version of MedDRA. Severity of AEs were assessed by investigators according to CTCAE (v4.03): Grade 1 is labeled as Mild, Grade 2 as Moderate, and Grade 3 and above as Severe. […] The number (percentage) of subjects who experienced an AE during escalation and fixed dosing periods were summarized by dose level and overall for each stage. The denominator for calculating the percentages were based on the number of subjects ever exposed to each dose and overall.

[2] = system: patients with PD and constipation; experiment: Phase 2 trial: adverse events, all dosed patients (Stage 1 and 2); assay type: in vivo, human
Method: Safety and Adverse Event (AE) Profile: Fifty patients were enrolled and 44 were dosed. In Stage 1, 10 patients were dosed, 1 (10%) withdrew prior to completion and 9 (90%) completed dosing. In stage 2, 6 (15%) patients had ≥3 CSBM/week at the end of the run-in period and were excluded, 34 patients were dosed and bowel response was assessable in 31 (91%). Two patients (5.8%) were terminated prior to completion because of recurrent dizziness, and 3 others withdrew during dosing (8.8%): 2 because of diarrhea and 1 because of holiday. Fifteen patients were randomized.
Most AEs were confined to the GI tract (88% in Stage 1 and 63% in Stage 2). The most common AE was nausea which occurred in 4/10 (40%) patients in Stage 1 and in 18/34 (52.9%) in Stage 2 (Table 6). Diarrhea occurred in 4/10 (40%) patients in Stage 1 and 15/34 (44%) in Stage 2. One patient withdrew because of recurrent diarrhea. Other GI related AEs included abdominal pain 11/44 […], flatulence 3/44 (6.8%), vomiting 3/44 (6.8%), worsening of acid reflux 2/44 (4.5%), and worsening of hemorrhoids 1/44 (2.2%). […] The only other noteworthy AE was dizziness 8/44 (18%). Dizziness was graded as moderate in one patient who was receiving an alpha-adrenergic blocking agent (Terazosin). This patient was withdrawn from the study and recovered spontaneously.

patients with PD = experiment: Phase 2 trial Stage 2: sleep diary (total sleep time, arm or leg thrashing / RBD); assay type: in vivo, human
Method: FIG. 18 is a chart of total sleep time in relation to squalamine dose. Total sleep time was obtained from the sleep diary by subtracting awake time during the night from total time spent in bed. Total sleep time per night was logged for each patient at baseline, each dosing period and at washout, and the means were determined. The light grey bar represents the baseline value for each cohort at a given dose level and the dark grey bar represents the value for the same cohort at the stated dose of squalamine (ENT-01; Kenterin™). The number of patients represented at each value are: Baseline, 33; 75 mg, 21; 100 mg, 28; 125 mg, 18; 150 mg, 15; 175 mg, 12; 200 mg, 7; 225 mg, 3; 250 mg, 2; washout, 33. P values were as follows: 75 mg, p=0.4; 100 mg, p=0.1; 125 mg, p=0.3; 150 mg, p=0.07; 175 mg, p=0.03; 200 mg, p=0.3; 225 mg, p=0.5; 250 mg, p=0.3; wash-out, p=0.04 (paired t test).
The frequency of arm or leg thrashing reported in the sleep diary diminished progressively from 2.2 episodes/week at baseline to 0 at maximal dose.
(5) Sleep Diary (participants completed a sleep diary on a daily basis throughout the study. The diaries included time into bed and estimated time to sleep as well as wake time and duration during the night.);
Exploratory end-points, in addition to constipation, included for example, (i) depression assessed using the Beck Depression Inventory (BDI-II) (Steer et al. 2000) and Unified Parkinson's Disease Rating Scale (UPDRS); (ii) cognition assessed using the Mini Mental State Examination (MMSE) (Palsteia et al. 2018), Unified Parkinson's Disease Rating Scale (UPDRS), and Trail Making Test (TMT); (iii) sleep and REM-behavior disorder (RBD) using a daily sleep diary, I-Button Temperature Assessment, a REM sleep behavior disorder (RBD) questionnaire (RBDQ) (Stiasny-Kolster et al. 2007), and the UPDRS; (iv) hallucinations assessed using the PD hallucinations questionnaire (PDHQ) (Papapetropoulos et al. 2008), the UPDRS, and direct questioning; (v) fatigue using the Parkinson's Disease Fatigue Scale (PFS-16) and the UPDRS; (vi) motor functions using the UPDRS; and (vii) non-motor functions using the UPDRS.

**Q.** How did the “AEs confined to the GI tract” value ([1]; Stage 2) turn out when `CC(C)[C@@H](CC[C@@H](C)[C@H]1CC[C@H]2[C@@H]3[C@H](O)C[C@H]4C[C@@H](NCCCNCCCCN)CC[C@]4(C)[C@H]3CC[C@]12C)OS(=O)(=O)O` (single isomer, unassigned; ent-01) [ENT-01] was run?
**A.** Its value is 63%.

**Q.** And the “Diarrhea, patients” value ([1]; Stage 2, 15/34)?
**A.** Its value is 44%.

**Q.** What about the “nausea, patients” value ([1]; Stage 2, 18/34) of the same molecule?
**A.** The value was 52.9%.

**Q.** What about the “Abdominal pain, Mild” value ([1]; Stage 2, 34 dosed) of the same molecule?
**A.** The value was 4(11.7) n, %.

**Q.** And the “Abdominal pain, Moderate” value ([1]; Stage 2, 34 dosed)?
**A.** Its value is 2(5.8) n, %.

**Q.** And the “Blood in urine, Mild” value ([1]; Stage 2, 34 dosed)?
**A.** The value was 0 n, %.

**Q.** And the “Blood in urine, Moderate” value ([1]; Stage 2, 34 dosed)?
**A.** The value was 0 n, %.

**Q.** What about the “Diarrhea, Mild” value ([1]; Stage 2, 34 dosed) of the same molecule?
**A.** The value was 12(35) n, %.

**Q.** And the “Diarrhea, Moderate” value ([1]; Stage 2, 34 dosed)?
**A.** Its value is 2(5.8) n, %.

**Q.** What about the “Diarrhea, Severe” value ([1]; Stage 2, 34 dosed) of the same molecule?
**A.** The value was 1(2.9) n, %.

**Q.** What about the “Difficulty falling asleep, Mild” value ([1]; Stage 2, 34 dosed) of the same molecule?
**A.** The value was 1(3) n, %.

**Q.** And the “Difficulty falling asleep, Moderate” value ([1]; Stage 2, 34 dosed)?
**A.** Its value is 0 n, %.

**Q.** What about the “Dizziness, Mild” value ([1]; Stage 2, 34 dosed) of the same molecule?
**A.** Its value is 7(20.5) n, %.

**Q.** And the “Dizziness, Moderate” value ([1]; Stage 2, 34 dosed)?
**A.** Its value is 1(2.9) n, %.

**Q.** And the “Flatulence, Mild” value ([1]; Stage 2, 34 dosed)?
**A.** The value was 1(3) n, %.

**Q.** And the “Flatulence, Moderate” value ([1]; Stage 2, 34 dosed)?
**A.** The value was 0 n, %.

**Q.** And the “Headache, Mild” value ([1]; Stage 2, 34 dosed)?
**A.** The value was 3(8.8) n, %.

**Q.** What about the “Headache, Moderate” value ([1]; Stage 2, 34 dosed) of the same molecule?
**A.** Its value is 0 n, %.

**Q.** And the “Increased urinary frequency, Mild” value ([1]; Stage 2, 34 dosed)?
**A.** The value was 2(5.8) n, %.

**Q.** What about the “Increased urinary frequency, Moderate” value ([1]; Stage 2, 34 dosed) of the same molecule?
**A.** The value was 0 n, %.

**Q.** What about the “Loss of appetite, Mild” value ([1]; Stage 2, 34 dosed) of the same molecule?
**A.** The value was 0 n, %.

**Q.** What about the “Loss of appetite, Moderate” value ([1]; Stage 2, 34 dosed) of the same molecule?
**A.** The value was 0 n, %.

**Q.** And the “Nausea, Mild” value ([1]; Stage 2, 34 dosed)?
**A.** The value was 18(52) n, %.

**Q.** And the “Nausea, Moderate” value ([1]; Stage 2, 34 dosed)?
**A.** Its value is 1(2.9) n, %.

**Q.** What about the “Skin lesions-rash, Mild” value ([1]; Stage 2, 34 dosed) of the same molecule?
**A.** The value was 3(8.8) n, %.

**Q.** And the “Skin lesions-rash, Moderate” value ([1]; Stage 2, 34 dosed)?
**A.** The value was 0 n, %.

**Q.** What about the “Urinary retention, Mild” value ([1]; Stage 2, 34 dosed) of the same molecule?
**A.** Its value is 1(3) n, %.

**Q.** And the “Urinary retention, Moderate” value ([1]; Stage 2, 34 dosed)?
**A.** The value was 0 n, %.

**Q.** What about the “Vomiting, Mild” value ([1]; Stage 2, 34 dosed) of the same molecule?
**A.** The value was 2(5.8) n, %.

**Q.** And the “Vomiting, Moderate” value ([1]; Stage 2, 34 dosed)?
**A.** The value was 0 n, %.

**Q.** What about the “Worsening acid reflux, Mild” value ([1]; Stage 2, 34 dosed) of the same molecule?
**A.** The value was 4(11.7) n, %.

**Q.** What about the “Worsening acid reflux, Moderate” value ([1]; Stage 2, 34 dosed) of the same molecule?
**A.** The value was 0 n, %.

**Q.** What about the “Worsening hemorrhoid, Mild” value ([1]; Stage 2, 34 dosed) of the same molecule?
**A.** Its value is 1(3) n, %.

**Q.** And the “Worsening hemorrhoid, Moderate” value ([1]; Stage 2, 34 dosed)?
**A.** The value was 0 n, %.

**Q.** What about the “Common adverse events by dose: Diarrhea” value ([1]; Stage 2, dose 75 mg) of the same molecule?
**A.** The value was 7.

**Q.** And the “Common adverse events by dose: Nausea” value ([1]; Stage 2, dose 75 mg)?
**A.** Its value is 3.

**Q.** What about the “Common adverse events by dose: Dizziness” value ([1]; Stage 2, dose 75 mg) of the same molecule?
**A.** Its value is 8.

**Q.** What about the “Common adverse events by dose: Diarrhea” value ([1]; Stage 2, dose 100 mg) of the same molecule?
**A.** The value was 10.

**Q.** What about the “Common adverse events by dose: Nausea” value ([1]; Stage 2, dose 100 mg) of the same molecule?
**A.** Its value is 12.

**Q.** And the “Common adverse events by dose: Dizziness” value ([1]; Stage 2, dose 100 mg)?
**A.** Its value is 7.

**Q.** And the “Common adverse events by dose: Diarrhea” value ([1]; Stage 2, dose 125 mg)?
**A.** The value was 3.

**Q.** What about the “Common adverse events by dose: Nausea” value ([1]; Stage 2, dose 125 mg) of the same molecule?
**A.** Its value is 4.

**Q.** And the “Common adverse events by dose: Dizziness” value ([1]; Stage 2, dose 125 mg)?
**A.** Its value is 8.

**Q.** What about the “Common adverse events by dose: Diarrhea” value ([1]; Stage 2, dose 150 mg) of the same molecule?
**A.** Its value is 2.

**Q.** And the “Common adverse events by dose: Nausea” value ([1]; Stage 2, dose 150 mg)?
**A.** The value was 11.

**Q.** What about the “Common adverse events by dose: Dizziness” value ([1]; Stage 2, dose 150 mg) of the same molecule?
**A.** The value was 2.

**Q.** What about the “Common adverse events by dose: Diarrhea” value ([1]; Stage 2, dose 175 mg) of the same molecule?
**A.** The value was 1.

**Q.** And the “Common adverse events by dose: Nausea” value ([1]; Stage 2, dose 175 mg)?
**A.** The value was 12.

**Q.** What about the “Common adverse events by dose: Dizziness” value ([1]; Stage 2, dose 175 mg) of the same molecule?
**A.** The value was 0.

**Q.** What about the “Common adverse events by dose: Diarrhea” value ([1]; Stage 2, dose 200 mg) of the same molecule?
**A.** The value was 2.

**Q.** What about the “Common adverse events by dose: Nausea” value ([1]; Stage 2, dose 200 mg) of the same molecule?
**A.** The value was 6.

**Q.** What about the “Common adverse events by dose: Diarrhea” value ([1]; Stage 2, dose 225 mg) of the same molecule?
**A.** The value was 3.

**Q.** And the “Common adverse events by dose: Nausea” value ([1]; Stage 2, dose 225 mg)?
**A.** Its value is 1.

**Q.** What about the “Common adverse events by dose: Diarrhea” value ([1]; Stage 2, dose 250 mg) of the same molecule?
**A.** The value was 2.

**Q.** And the “Lower GI bleed, Severe” value ([1]; Stage 2, Unrelated to ENT-01 (diverticulosis, polyp, aspirin, Plavix, naproxen))?
**A.** Its value is 1(2.5) n, %.

**Q.** And the worsening of hemorrhoids ([2]; 1/44)?
**A.** The worsening of hemorrhoids was 2.2%.

**Q.** And the “worsening of acid reflux” value ([2]; 2/44)?
**A.** Its value is 4.5%.

**Q.** What about the flatulence ([2]; 3/44) of the same molecule?
**A.** Its flatulence is 6.8%.

**Q.** What about the vomiting ([2]; 3/44) of the same molecule?
**A.** The vomiting was 6.8%.

**Q.** What about the dizziness ([2]; 8/44) of the same molecule?
**A.** Its dizziness is 18%.

**Q.** And the abdominal pain ([2]; 11/44)?
**A.** The abdominal pain was 32%.

**Q.** What about the “increase of total sleep time” value (patients with PD; 250 mg vs baseline) of the same molecule?
**A.** The value was 18%.

**Q.** What about the Total sleep time (patients with PD; at 250 mg, baseline 7.1) of the same molecule?
**A.** The Total sleep time was 8.4 h.

**Q.** And the “improvement of arm or leg thrashing frequency” value (patients with PD; at maximal dose vs baseline)?
**A.** The value was 100%.

**Q.** And the “frequency of arm or leg thrashing reported in the sleep diary” value (patients with PD; at maximal dose, baseline 2.2)?
**A.** Its value is 0 episodes/week.

**Q.** And the Total sleep time (patients with PD; beyond 125 mg)?
**A.** The Total sleep time was “consistently higher than baseline”.

— US11083735B2, “Methods for treating sleep disorders, sleep disturbances, and related symptoms using aminosterol compositions” (Enterin, Inc., priority 2017, dated 2021)
